The values below come from patent publication US7842838B2, “Pyrro[1,2-b]pyridazinone intermediates” (Anadys Pharmaceuticals, Inc., priority 2006, dated 2010).

Sequence of NS5B polymerase (P26663 2420-3010): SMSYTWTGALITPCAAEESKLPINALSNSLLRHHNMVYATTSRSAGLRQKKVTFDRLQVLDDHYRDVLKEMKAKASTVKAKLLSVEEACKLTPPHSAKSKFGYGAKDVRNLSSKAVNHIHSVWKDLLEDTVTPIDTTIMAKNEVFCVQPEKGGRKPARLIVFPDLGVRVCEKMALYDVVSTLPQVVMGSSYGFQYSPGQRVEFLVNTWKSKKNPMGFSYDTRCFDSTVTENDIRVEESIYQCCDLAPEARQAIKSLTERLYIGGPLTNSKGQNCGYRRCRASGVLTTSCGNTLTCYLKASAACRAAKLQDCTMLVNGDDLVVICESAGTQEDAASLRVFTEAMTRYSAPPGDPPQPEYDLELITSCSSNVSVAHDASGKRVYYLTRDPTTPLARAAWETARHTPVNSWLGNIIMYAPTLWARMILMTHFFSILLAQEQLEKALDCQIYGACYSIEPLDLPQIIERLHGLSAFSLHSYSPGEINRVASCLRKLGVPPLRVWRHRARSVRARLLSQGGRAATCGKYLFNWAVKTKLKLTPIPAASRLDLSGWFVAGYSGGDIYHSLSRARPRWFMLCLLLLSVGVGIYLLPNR

The first experiment has as its target NS5B polymerase (Hepatitis C virus genotype 1b, UniProt P26663). The experiment in a line: HCV NS5B polymerase inhibition assay (streptavidin-coated FlashPlate, [α-33P]GTP incorporation).
Details: not given
Type of experiment: biochemical. As for the experimental part:
Compounds were tested for HCV polymerase inhibition. Assays were performed in a 96-well streptavidin-coated FlashPlate using 20 nM enzyme, 0.5 μCi of [α-^33P]GTP, 0.6 μM GTP, and 250 nM 5′biotinylated oligo (rG13)/poly rC in 20 mM Tris-HCl, pH 7.5, 5 mM MgCl2, 5 mM dithiothreitol, […] bovine serum albumin, and 100 U/mL RNAse inhibitor. The reaction was stopped by aspiration after 75 min at 28° C. and the plate was washed several times. After washing and drying the plate, incorporated radioactivity was counted using a Microbeta scintillation counter. IC50 values were calculated relative to the uninhibited control and inhibition data were fitted to a 4-parameter IC50 equation.
One may read the IC50 as the concentration needed to halve the response being measured. `CC(C)CCn1c(=O)c(C2=Nc3ccc(NS(C)(=O)=O)cc3S(=O)(=O)N2)c(O)c2cccn21` [Example 3, N-{3-[4-Hydroxy-1-(3-methyl-butyl)-2-oxo-1,2-dihydro-pyrrolo[1,2-b]pyridazin-3-yl]-1,1-dioxo-1,4-dihydro-1λ^6-benzo[1,2,4]thiadiazin-7-yl}-methanesulfonamide]: the IC50 was below 100 nM.

Consider `CS(=O)(=O)Nc1ccc2c(c1)S(=O)(=O)N=C(c1c(O)c3cccn3n(Cc3ccc(F)c(Cl)c3)c1=O)N2` [Example 17, N-{3-[1-(3-Chloro-4-fluoro-benzyl)-4-hydroxy-2-oxo-1,2-dihydro-pyrrolo[1,2-b]pyridazin-3-yl]-1,1-dioxo-1,4-dihydro-1λ^6-benzo[1,2,4]thiadiazin-7-yl}-methanesulfonamide], for which the IC50 is below 100 nM.

Staying with this experiment, now noted: 20 nM enzyme, 75 min at 28° C.; read-out: NS5B Polymerase IC50.
On to `CC(C)CCn1c(=O)c(C2=NS(=O)(=O)c3ccccc3N2)c(O)c2cccn21` [Example 1, 3-(1,1-Dioxo-1,4-dihydro-1λ^6-benzo[1,2,4]thiadiazin-3-yl)-4-hydroxy-1-(3-methyl-butyl)-pyrrolo[1,2-b]pyridazin-2-one], for which the IC50 was in the range of 100 to 3000 nM.

Take `COc1ccc2c(c1)S(=O)(=O)N=C(c1c(O)c3cccn3n(CCC(C)C)c1=O)N2` [Example 2, 4-Hydroxy-3-(7-methoxy-1,1-dioxo-1,4-dihydro-1λ^6-benzo[1,2,4]thiadiazin-3-yl)-1-(3-methyl-butyl)-pyrrolo[1,2-b]pyridazin-2-one]: the IC50 was in the range of 100 to 3000 nM.

Take `CC(C)(C)CCn1c(=O)c(C2=NS(=O)(=O)c3cc(NS(C)(=O)=O)ccc3N2)c(O)c2cccn21` [Example 4, N-{3-[1-(3,3-Dimethyl-butyl)-4-hydroxy-2-oxo-1,2-dihydro-pyrrolo[1,2-b]pyridazin-3-yl]-1,1-dioxo-1,4-dihydro-1λ^6-benzo[1,2,4]thiadiazin-7-yl}-methanesulfonamide]: the IC50 was below 100 nM.

Consider `CN(c1ccc2c(c1)S(=O)(=O)N=C(c1c(O)c3cccn3n(CCC(C)(C)C)c1=O)N2)S(C)(=O)=O` [Example 5, N-{3-[1-(3,3-Dimethyl-butyl)-4-hydroxy-2-oxo-1,2-dihydro-pyrrolo[1,2-b]pyridazin-3-yl]-1,1-dioxo-1,4-dihydro-1λ^6-benzo[1,2,4]thiadiazin-7-yl}-N-methyl-methanesulfonamide], for which the IC50 is below 100 nM.

Consider `CC(C)CCn1c(=O)c(C2=NS(=O)(=O)c3cc(N(C)S(C)(=O)=O)ccc3N2)c(O)c2cccn21` [Example 6, N-{3-[4-Hydroxy-1-(3-methyl-butyl)-2-oxo-1,2-dihydro-pyrrolo[1,2-b]pyridazin-3-yl]-1,1-dioxo-1,4-dihydro-1λ^6-benzo[1,2,4]thiadiazin-7-yl}-N-methyl-methanesulfonamide], for which the IC50 lay in the range of 100 to 3000 nM.

Regarding `CC(C)CCn1c(=O)c(C2=CS(=O)(=O)c3cc(N(C)S(C)(=O)=O)ccc3N2)c(O)c2cccn21` [Example 7, N-{3-[4-Hydroxy-1-(3-methyl-butyl)-2-oxo-1,2-dihydro-pyrrolo[1,2-b]pyridazin-3-yl]-1,1-dioxo-1,4-dihydro-1λ^6-benzo[1,4]thiazin-7-yl}-N-methyl-methanesulfonamide], the IC50 was in the range of 100 to 3000 nM.

Take `CC(C)(C)CCn1c(=O)c(C2=CS(=O)(=O)c3cc(NS(C)(=O)=O)ccc3N2)c(O)c2cccn21` [Example 8, N-{3-[1-(3,3-Dimethyl-butyl)-4-hydroxy-2-oxo-1,2-dihydro-pyrrolo[1,2-b]pyridazin-3-yl]-1,1-dioxo-1,4-dihydro-1λ^6-benzo[1,4]thiazin-7-yl}-methanesulfonamide]: the IC50 is below 100 nM.

As to `CS(=O)(=O)Nc1ccc2c(c1)S(=O)(=O)N=C(c1c(O)c3cccn3n(Cc3ccc(F)cc3)c1=O)N2` [Example 9, N-{3-[1-(4-Fluoro-benzyl)-4-hydroxy-2-oxo-1,2-dihydro-pyrrolo[1,2-b]pyridazin-3-yl]-1,1-dioxo-1,4-dihydro-1λ^6-benzo[1,2,4]thiadiazin-7-yl}-methanesulfonamide], the IC50 was below 100 nM.

As for `CN(c1ccc2c(c1)S(=O)(=O)N=C(c1c(O)c3cccn3n(Cc3ccc(F)cc3)c1=O)N2)S(C)(=O)=O` [Example 10, N-{3-[1-(4-Fluoro-benzyl)-4-hydroxy-2-oxo-1,2-dihydro-pyrrolo[1,2-b]pyridazin-3-yl]-1-dioxo-1,4-dihydro-1λ^6-benzo[1,2,4]thiadiazin-7-yl}-N-methyl-methanesulfonamide], the IC50 lay within 100 to 3000 nM.

In the case of `O=c1c(C2=NS(=O)(=O)c3cc(C4CCCS4(=O)=O)ccc3N2)c(O)c2cccn2n1Cc1ccc(F)cc1` (centres unmarked) [Example 11, 3-[7-(1,1-Dioxo-tetrahydro-1λ^6-thiophen-2-yl)-1,1-dioxo-1,4-dihydro-1λ^6-benzo[1,2,4]thiadiazin-3-yl]-1-(4-fluoro-benzyl)-4-hydroxy-pyrrolo[1,2-b]pyridazin-2-one], the IC50 fell in the range of 100 to 3000 nM.

As for `O=c1c(C2=NS(=O)(=O)c3ccccc3N2)c(O)c2cccn2n1Cc1ccc(F)cc1` [Example 12, 3-(1,1-Dioxo-1,4-dihydro-1λ^6-benzo[1,2,4]thiadiazin-3-yl)-1-(4-fluoro-benzyl)-4-hydroxy-pyrrolo[1,2-b]pyridazin-2-one], the IC50 was in the range of 100 to 3000 nM.

For the molecule `CC(C)CCn1c(=O)c(C2=NS(=O)(=O)c3cc(NS(=O)(=O)C4CC4)ccc3N2)c(O)c2cccn21` [Example 13, Cyclopropanesulfonic acid {3-[4-hydroxy-1-(3-methyl-butyl)-2-oxo-1,2-dihydro-pyrrolo[1,2-b]pyridazin-3-yl]-1,1-dioxo-1,4-dihydro-1λ^6-benzo[1,2,4]thiadiazin-7-yl}-amide], the IC50 fell in the range of 100 to 3000 nM.

In the case of `CC(C)CCn1c(=O)c(C2=NS(=O)(=O)c3cc(NS(C)(=O)=O)ccc3N2)c(O)c2cc(F)cn21` [Example 14, N-{3-[6-Fluoro-4-hydroxy-1-(3-methyl-butyl)-2-oxo-1,2-dihydro-pyrrolo[1,2-b]pyridazin-3-yl]-1,1-dioxo-1,4-dihydro-1λ^6-benzo[1,2,4]thiadiazin-7-yl}-methanesulfonamide], the IC50 was below 100 nM.

For `CC(C)CCn1c(=O)c(C2=NS(=O)(=O)c3cc(NS(C)(=O)=O)ccc3N2)c(O)c2cc(C#N)cn21` [Example 15, N-{3-[6-Cyano-4-hydroxy-1-(3-methyl-butyl)-2-oxo-1,2-dihydro-pyrrolo[1,2-b]pyridazin-3-yl]-1,1-dioxo-1,4-dihydro-1λ^6-benzo[1,2,4]thiadiazin-7-yl}-methanesulfonamide], the IC50 lay in the range of 100 to 3000 nM.

In the case of `CC(C)CCn1c(=O)c(C2=CS(=O)(=O)c3cc(NS(C)(=O)=O)ccc3N2)c(O)c2cccn21` [Example 16, N-{3-[4-Hydroxy-1-(3-methyl-butyl)-2-oxo-1,2-dihydro-pyrrolo[1,2-b]pyridazin-3-yl]-1,1-dioxo-1,4-dihydro-1λ^6-benzo[1,4]thiazin-7-yl}-methanesulfonamide], the IC50 is below 100 nM.
